Measurements from patent US20050153872A1, “Methods and compositions for the treatment of infection” (priority 2004, published 2005).
In brackets after ≈: the same amount, converted by molar mass. Like-named read-outs stand apart in the source and are kept apart here.

Tests used:
[1] = tested on: Staphylococcus aureus MRSA 02-18; test: microbe, parasite or virus in culture; format: cell-based; conditions: Staphylococcus aureus MRSA 02-18; read-out: MIC
[2] = tested on: ATCC 700802 VRE cells; test: Electron micrographs of bactericidal effects of Ph-EF; format: cell-based, Enterococcus; conditions: Ph-EF 10 ug/ml 0.5 and 2 hr; Ph-SA 10 ug/ml 2 hr; vancomycin 20 ug/ml 2 hr
Protocol: Electron Microraphs of Bactericidal Effects of Ph-EF Against ATCC 700802 VRE Cells (1% Phosphotungstic Acid, 15.000×).
Bactericidal effects of ph-EF were tested and monitored by electron microscopy. FIG. 16 depicts electron micrographs of (a) untreated cells; (b) and (c) cells treated with Ph-EF (10 ug/ml) for 0.5 hr; (d) untreated cells for 2 hr; (e) cells treated by Ph-SA (10 ug/ml) for 2 hr; (f) cells treated with vancomycin (20 ug/ml) for 2 hr; (g) and (h) cells treated with Ph-EF (10 ug/ml) for 2 hrs.

[3] = tested on: Enterococcus faecalis ATCC 700802; test: microbe, parasite or virus in culture; format: cell-based; conditions: ATCC700802; Enterococcus faecalis ATCC 700802; read-out: MIC
[4] = tested on: Staphylococcus aureus MRSA BAA-42; test: microbe, parasite or virus in culture; format: cell-based; conditions: Staphylococcus aureus MRSA BAA-42; read-out: MIC
[5] = tested on: Staphylococcus aureus ATCC 29213; test: In vivo protection of infected mice; set-up: species or system Kungming mice; conditions: Staphylococcus aureus, i.p. infection 3.6 × 10^5 cfu/ml, read-out: ED50
Protocol: (§1) The following experiments were performed by Pharmacology Lab, National Sichuan antibiotic industril institute, Chengdu, Sichuan.
(§2) The agents described above were diluted with sterilized water to final concentrations of 10 mg/L, 5 mg/Land 2.5 mg/L. […]
(§3) 170 mice (Kungming mice: 18˜22 g, 85 males and 85 females) were randomly divided into four groups and injected with a fatal dosage of staphylococci, enterococcus and E. coli intraperitoneally. […] Mice were inspected every 24 hours for 7-14 days. Dead mice were counted as positive results. The results are depicted in Table 3 and FIGS. 4 and 5A-B.

[6] = tested on: Escherichia coli 02-1-65; test: In vivo protection of infected mice; set-up: species or system Kungming mice; conditions: i.p. infection 3.3 × 10^5 cfu/ml, read-out: ED50
Protocol: as §1, §2, §3

[7] = tested on: Vancomycin-resistant Enterococcus ATCC 700802; conditions: 10 ug/ml; ATCC 700802
[8] = tested on: Enterococcus (20); test: In vitro antibacterial activity (MIC), clinical isolates; format: cell-based; conditions: 20 Enterococcus clinical isolates
Protocol: (§4) The following experiments were performed by Lab. of Pharmacology, National Sichuan antibiotic industril institute, Chengdu, Sichuan.
(§5) The following agents were used to test the in vitro activity of Ph-SA:
(§6) All the bacterial strains used in the experiments were clinical isolates collected from Sichuan and Beijing in 2002 and identified by West China Hospital, Sichuan University and Chongqing University of Medical Sciences with API system. The following strains were used in the experiments detailed below: Staphylococcus aureus 168 strains (MRSA 80 strains and MSSA 88 strains) Staphylococcus epidermidis 46 strains (MRSE 25 strains and MSSE 21 strains), Enterococcus 20 strains, and Acenetobactor 20 strains. Staphylococcus aureus ATCC25923, 29213 and BAA-42 were used as control strains. Bacterial strains were contacted with one of the above described compounds and MIC50, MIC90 and MICScope were determined.

[9] = tested on: Acenetobactor (20); test: as above; format: cell-based
Protocol: as §4, §5, §6

[10] = tested on: Staphylococcus aureus MRSA strain (80); test: as above; format: cell-based; conditions: Staphylococcus aureus, MRSA
Protocol: as §4, §5, §6

[11] = tested on: Staphylococcus aureus MSSA strain (88); test: as above; format: cell-based; conditions: Staphylococcus aureus, 88 MSSA clinical isolates
Protocol: as §4, §5, §6

[12] = tested on: Staphylococcus epidermidis MSSE strain (21); test: as above; format: cell-based; conditions: Staphylococcus epidermidis, 21 MSSE clinical isolates
Protocol: as §4, §5, §6

[13] = tested on: Staphylococcus epidermidis MRSE strain (25); test: as above; format: cell-based; conditions: Staphylococcus epidermidis, MRSE
Protocol: as §4, §5, §6

[14] = tested on: ATCC 700802 VRE cells; test: Ph-EF protection of ATCC 700802 infected mice; format: in vivo; conditions: 5 animals
Protocol: To assess in vivo effects of Ph-EF, mice were injected with a fatal dosage of ATCC 700802 VRE cells intraperitoneally. […] Mice were inspected every 24 hours for 7-14 days. Dead mice would be counted as positive results.

[15] = tested on: Staphylococcus aureus ATCC 29213; test: MIC against challenge strain (Table 3); format: cell-based; conditions: ATCC29213, read-out: MIC
[16] = tested on: Escherichia coli 02-1-65; test: MIC against challenge strain (Table 3); format: cell-based; conditions: 02165, read-out: MIC
[17] = tested on: Staphylococcus aureus MRSA 02-18; test: In vivo protection of infected mice; set-up: species or system Kungming mice; conditions: Staphylococcus aureus, MRSA
Protocol: as §1
(§7) The agents described above were diluted with sterilized water to final concentrations of 10 mg/L, 5 mg/Land 2.5 mg/L.
(§8) Staphylococcus aureus ATCC BAA-42(MRSA) and enterococcus faecalis ATCC 700802 were used as control strains.
as §3

[18] = tested on: Enterococcus faecalis ATCC 700802; test: In vivo protection of infected mice; set-up: species or system Kungming mice; conditions: Enterococcus faecalis
Protocol: as §1, §7, §8, §3

[19] = tested on: Staphylococcus aureus MRSA BAA-42; test: In vivo protection of infected mice; set-up: species or system Kungming mice; conditions: Staphylococcus aureus
Protocol: as §1, §7, §8, §3

CN[C@H](CC(C)C)C(=O)N[C@H]1C(=O)N[C@@H](CC(N)=O)C(=O)N[C@H]2C(=O)N[C@H]3C(=O)N[C@H](C(=O)N[C@H](C(=O)O)c4cc(O)cc(O)c4-c4cc3ccc4O)[C@H](O)c3ccc(c(Cl)c3)Oc3cc2cc(c3O[C@@H]2O[C@H](CO)[C@@H](O)[C@H](O)[C@H]2O[C@H]2C[C@](C)(N)[C@H](O)[C@H](C)O2)Oc2ccc(cc2Cl)[C@H]1O [Vancomycin]
MIC [1]: 0.06 µg/mL (≈ 0.0414 µM) | morphological alteration in VRE cells (electron micrographs) [2]: no morphological alteration | MIC [3]: 16 µg/mL (≈ 11 µM) | MIC [4]: 0.06 µg/mL (≈ 0.0414 µM) | ED50 ([5]; ATCC29213, 2nd Time (value in parentheses), i.v. treatment): 2.09 mg/kg | ED50 ([5]; ATCC29213, 1 h, 1st Time, i.v. treatment after one hour): 2.32 mg/kg | ED50 ([6]; Escherichia coli, 02165, 2nd Time (value in parentheses), i.v. treatment): > 30.8 mg/kg | ED50 ([6]; Escherichia coli, 02165, 1 h, 1st Time, i.v. treatment after one hour): > 30.8 mg/kg | inhibition of VRE cell growth [7]: only partially inhibited VRE cell growth | MIC [8]: 0.5 to 50 µg/mL (≈ 0.345 to 34.5 µM) | MIC50 ([8]; read-out: MIC50): 1 µg/mL (≈ 0.69 µM) | MIC90 ([8]; read-out: MIC90): 2 µg/mL (≈ 1.38 µM) | MIC50 [9]: > 128 µg/mL | MIC90 [9]: > 128 µg/mL | MIC50 [10]: 0.25 µg/mL (≈ 0.173 µM) | MIC90 [10]: 1 µg/mL (≈ 0.69 µM) | MIC ([10]; read-out: MIC Scope): 0.004 to 2 µg/mL (≈ 0.00276 to 1.38 µM) | MIC50 ([11]; read-out: MIC50): 0.5 µg/mL (≈ 0.345 µM) | MIC90 ([11]; read-out: MIC90): 1 µg/mL (≈ 0.69 µM) | MIC ([11]; read-out: MIC Scope): 0.03 to 1 µg/mL (≈ 0.0207 to 0.69 µM) | MIC [12]: 0.06 to 0.5 µg/mL (≈ 0.0414 to 0.345 µM) | MIC50 ([12]; read-out: MIC50): 0.5 µg/mL (≈ 0.345 µM) | MIC90 ([12]; read-out: MIC90): 0.5 µg/mL (≈ 0.345 µM) | MIC50 [13]: 0.5 µg/mL (≈ 0.345 µM) | MIC90 [13]: 1 µg/mL (≈ 0.69 µM) | MIC ([13]; read-out: MIC Scope): 0.25 to 2 µg/mL (≈ 0.173 to 1.38 µM) | Death distribution in hours 24 h ([14]; 5 mg/kg intravenously): 3 | Death distribution in hours 48 h ([14]; 5 mg/kg intravenously): 2 | Death distribution in hours 72 h ([14]; 5 mg/kg intravenously): 1 | Death distribution in hours 96 h ([14]; 5 mg/kg intravenously): 0 | Death distribution in hours 120 h ([14]; 5 mg/kg intravenously): 0 | Death distribution in hours 144 h ([14]; 5 mg/kg intravenously): 0 | Death distribution in hours 168 h ([14]; 5 mg/kg intravenously): 0 | Number of Death ([14]; 5 mg/kg intravenously): 3 | Death distribution in hours 24 h ([14]; 10 mg/kg intravenously): 1 | Death distribution in hours 48 h ([14]; 10 mg/kg intravenously): 1 | Death distribution in hours 72 h ([14]; 10 mg/kg intravenously): 0 | Death distribution in hours 96 h ([14]; 10 mg/kg intravenously): 0 | Death distribution in hours 120 h ([14]; 10 mg/kg intravenously): 0 | Death distribution in hours 144 h ([14]; 10 mg/kg intravenously): 0 | Death distribution in hours 168 h ([14]; 10 mg/kg intravenously): 0 | Number of Death ([14]; 10 mg/kg intravenously): 1 | MIC [15]: 0.5 µg/mL (≈ 0.345 µM) | MIC [16]: 128 µg/mL (≈ 88.3 µM) | ED50 [17]: 2.39 mg/kg | ED50 ([17]; 1 h): 2.27 mg/kg | ED50 ([18]; ATCC700802): 2.64 mg/kg | ED50 ([18]; ATCC700802, 1 h): 3.17 mg/kg | ED50 [19]: 3.53 mg/kg | ED50 ([19]; 1 h): 3.64 mg/kg
